The record followed here is patent US7056917B2, “Drug efflux pump inhibitor” (Daiichi Pharmaceutical Co., Ltd., priority 2001, dated 2006).

SMILES strings stand for the structures.

Experiment [1] relates to Pseudomonas aeruginosa PAM 1723 strain highly expressing the drug efflux pump. As to the kind of experiment: Effect of combined use with antimicrobial agent (levofloxacin, aztreonam) on multidrug resistant Pseudomonas aeruginosa. The class given is cell-based. The settings on record: 18 hours, MHB; for MPC8 AZT: minimum concentration of test compound required to enhance antibacterial activity of aztreonam at 1/8 or less of MIC; for MPC4 LVFX: minimum concentration of test compound required to enhance antibacterial activity of levofloxacin applied at 1/4 of MIC; for MPC8 LVFX: minimum concentration of test compound required to enhance antibacterial activity of levofloxacin applied at 1/8 or less of MIC. The text has this:
Effect of Combined Use with Antimicrobial Agent on Multidrug Resistant Pseudomonas aeruginosa
As multidrug resistant Pseudomonas aeruginosa, Pseudomonas aeruginosa PAM 1723 strain highly expressing the drug efflux pump was used. As antimicrobial drugs for the combinational uses, levofloxacin (LVFX) as a quinolone antibacterial agent and aztreonam (AZT) as a monobactam antibiotic were used. Each of the compounds shown in Table 1 with Example No., which falls within the compounds of the present invention, was subjected to the measurement of its minimum concentration (μg/ml) that was required to enhance the antibacterial activity of levofloxacin when the test compound was used in combination with levofloxacin applied at a concentration of 1/4, or 1/8 or less of the minimum inhibitory concentration against the PAM 1723 strain. […] Effects as combinational uses for 18 hours was indicated for each of the drugs. Effects were determined by visually observing the turbidity of the medium. The Müller-Hinton broth (MHB, Difco) was used as a medium, and the inoculum of the bacteria was 1×10^6 CFU/ml.

The subject of experiment [2] is Pseudomonas aeruginosa wild strain PAM 1020. As to the kind of experiment: Combined use of a pump inhibitor, levofloxacin (LVFX) and meropenem (MEPM) evaluated by the three-dimensional checker board method. The settings on record: for MIC: Pseudomonas aeruginosa, agent used alone, PAM 1020 strain. Type of experiment: cell-based. As to the method: (1) Effect of Combined Used of a Pump Inhibitor, Levofloxacin (LVFX) and Meropenem (MEPM) Evaluated by the Three-Dimensional Checker Board Method
The effect was measured by the three-dimensional checker board method by using Pseudomonas aeruginosa wild strain PAM 1020. The test strain was inoculated into Mueller-Hinton broth containing LVFX, MEPM (at 11 concentration levels and 0 μg/ml) and the compound of Example 26 (40-0.625 μg/ml and 0 μg/ml) at a concentration of 10^6 CFU/ml and cultured at 37° C. for 18 hours. Then, MIC was measured for sole and combined use. Measurement was performed by the checker board method and FIC index was calculated according to the following equation. FIC index=a/a0+b/b0+c/c0 wherein a0: MIC for Agent A used alone, a: MIC for Agent A when Agents A, B and C are used in combination, b0: MIC for Agent B used alone, b: MIC for Agent B when Agents A, B and C are used in combination, c0: MIC for Agent C used alone, c: MIC for Agent C when Agents A, B and C are used in combination.
It was determined that there was synergistic effect when FIC index was 0.75 or less, additive effect or weak synergistic effect when the index was more than 0.75 but not more than 1.125, no effect of combined use when the index was more than 1.125 but not more than 3.0, and antagonistic effect when the index was more than 3.0.

As for `CC(C)c1csc(COc2ccn3c(=O)c(/C=C/C(=O)O)c(N4CCCC(O)C4)nc3c2)n1` (centres unmarked) [Example 5, (E)-3-{2-(3-Hydroxypiperidino)-8-[(4-isopropyl-1,3-thiazol-2-yl)methoxy]-4-oxo-4H-pyrido[1,2-a]pyrimidin-3-yl}-2-propenoic acid], in experiment [1], the “MPC8 AZT” value amounted to 8 µg/mL, the “MPC4 LVFX” value is 0.5 µg/mL and the “MPC8 LVFX” value amounted to 8 µg/mL.

Take `CC(C)(C)c1csc(NC(=O)c2ccn3c(=O)c(-c4nnn[nH]4)cnc3c2)n1` [Example 10, N8-[4-(tert-Butyl)-1,3-thiazol-2-yl]-4-oxo-3-(2H-1,2,3,4-tetrazol-5-yl)-4H-pyrido[1,2-a]pyrimidine-8-carboxamide]: in experiment [1], the “MPC8 AZT” value was 4 µg/mL, the “MPC4 LVFX” value is 2 µg/mL and the “MPC8 LVFX” value is 16 µg/mL.

Regarding `CC(C)c1csc(/C=C/c2ccn3c(=O)c(/C=C/c4nnn[nH]4)c(N4CCCC(O)C4)nc3c2)n1` (centres unmarked) [Example 104, 2-(3-Hydroxypiperidino)-8-[(E)-2-(4-isopropyl-1,3-thiazol-2-yl)-1-ethenyl]-3-[(E)-2-(1H-1,2,3,4-tetrazol-5-yl)-1-ethenyl]-4H-pyrido[1,2-a]pyrimidin-4-one], in experiment [1], the “MPC8 AZT” value amounted to 0.5 µg/mL, the “MPC4 LVFX” value amounted to 0.24 µg/mL and the “MPC8 LVFX” value is 1 µg/mL.

Take `CC(C)c1csc(CCc2ccn3c(=O)c(/C=C/C(=O)O)c(SCC(N)=O)nc3c2)n1` [Example 152, (E)-3-{2-Aminocarbonylmethylthio-8-[2-(4-isopropyl-1,3-thiazol-2-yl)-ethyl]-4-oxo-4H-pyrido[1,2-a]pyrimidin-3-yl}-2-propenoic acid]: in experiment [1], the “MPC8 AZT” value was found to be 4 µg/mL, the “MPC4 LVFX” value came out at 2 µg/mL and the “MPC8 LVFX” value turned out to be 8 µg/mL.

For `CC(C)c1csc(CCc2ccn3c(=O)c(/C=C/C(=O)NS(C)(=O)=O)c(N4CCOCC4)nc3c2)n1` [Example 98, N-((E)-3-{8-[2-(4-Isopropyl-1,3-thiazol-2-yl)ethyl]-2-morpholino-4-oxo-4H -pyrido[1,2-a]pyrimidin-3-yl}-2-propenoyl)methanesulfonamide], in experiment [1], the “MPC8 AZT” value came out at 4 µg/mL, the “MPC4 LVFX” value is 1 µg/mL and the “MPC8 LVFX” value is 4 µg/mL.

What is called MIC is the smallest concentration in the dilution series that meets the test's criterion for growth inhibition. With `C[C@H]1COc2c(N3CCN(C)CC3)c(F)cc3c(=O)c(C(=O)O)cn1c23` [LVFX, levofloxacin], the FIC index worked out at 1.031 in experiment [2] (LVFX + MEPM 0.016 μg/ml, compound of Example 26 0 μg/ml, PAM 1020); 1.0625 in experiment [2] (LVFX + MEPM 0.0313 μg/ml, compound of Example 26 0 μg/ml, PAM 1020); 1.125 in experiment [2] (LVFX + MEPM 0.0625 μg/ml, compound of Example 26 0 μg/ml, PAM 1020); 1.250 in experiment [2] (LVFX + MEPM 0.125 μg/ml, compound of Example 26 0 μg/ml, PAM 1020); 1.5 in experiment [2] (LVFX + MEPM 0.25 μg/ml, compound of Example 26 0 μg/ml, PAM 1020). Moreover, the LVFX conc. in experiment [2] (LVFX conc. in combination with MEPM 0.016 μg/ml and compound of Example 26 0.625 μg/ml, PAM 1020) was determined as 0.25 µg/mL; in experiment [2] (LVFX conc. in combination with MEPM 0.016 μg/ml and compound of Example 26 1.25 μg/ml, PAM 1020) it was 0.25 µg/mL; in experiment [2] (LVFX conc. in combination with MEPM 0.016 μg/ml and compound of Example 26 2.5 μg/ml, PAM 1020), 0.25 µg/mL; in experiment [2] (LVFX conc. in combination with MEPM 0.016 μg/ml and compound of Example 26 5 μg/ml, PAM 1020), 0.125 µg/mL; in experiment [2] (LVFX conc. in combination with MEPM 0.016 μg/ml and compound of Example 26 10 μg/ml, PAM 1020), 0.125 µg/mL; in experiment [2] (LVFX conc. in combination with MEPM 0.016 μg/ml and compound of Example 26 20 μg/ml, PAM 1020), 0.125 µg/mL. Moreover, the LVFX conc. in experiment [2] (LVFX conc. in combination with MEPM 0.016 μg/ml and compound of Example 26 40 μg/ml, PAM 1020) came out at 0.125 µg/mL; in experiment [2] (LVFX conc. in combination with MEPM 0.016 μg/ml, compound of Example 26 0 μg/ml, PAM 1020), 0.25 µg/mL; in experiment [2] (LVFX conc. in combination with MEPM 0.0313 μg/ml and compound of Example 26 0.625 μg/ml, PAM 1020) it was 0.25 µg/mL; in experiment [2] (LVFX conc. in combination with MEPM 0.0313 μg/ml and compound of Example 26 1.25 μg/ml, PAM 1020), 0.25 µg/mL; in experiment [2] (LVFX conc. in combination with MEPM 0.0313 μg/ml and compound of Example 26 2.5 μg/ml, PAM 1020) it was 0.125 µg/mL; in experiment [2] (LVFX conc. in combination with MEPM 0.0313 μg/ml and compound of Example 26 5 μg/ml, PAM 1020) it was 0.125 µg/mL. In addition, the LVFX conc. is 0.125 µg/mL in experiment [2] (LVFX conc. in combination with MEPM 0.0313 μg/ml and compound of Example 26 10 μg/ml, PAM 1020); 0.125 µg/mL in experiment [2] (LVFX conc. in combination with MEPM 0.0313 μg/ml and compound of Example 26 20 μg/ml, PAM 1020); 0.125 µg/mL in experiment [2] (LVFX conc. in combination with MEPM 0.0313 μg/ml and compound of Example 26 40 μg/ml, PAM 1020); 0.25 µg/mL in experiment [2] (LVFX conc. in combination with MEPM 0.0313 μg/ml, compound of Example 26 0 μg/ml, PAM 1020); 0.25 µg/mL in experiment [2] (LVFX conc. in combination with MEPM 0.0625 μg/ml and compound of Example 26 0.625 μg/ml, PAM 1020); 0.125 µg/mL in experiment [2] (LVFX conc. in combination with MEPM 0.0625 μg/ml and compound of Example 26 1.25 μg/ml, PAM 1020). The LVFX conc. in experiment [2] (LVFX conc. in combination with MEPM 0.0625 μg/ml and compound of Example 26 2.5 μg/ml, PAM 1020) came out at 0.125 µg/mL; in experiment [2] (LVFX conc. in combination with MEPM 0.0625 μg/ml and compound of Example 26 5 μg/ml, PAM 1020), 0.0625 µg/mL; in experiment [2] (LVFX conc. in combination with MEPM 0.0625 μg/ml and compound of Example 26 10 μg/ml, PAM 1020), 0.0625 µg/mL; in experiment [2] (LVFX conc. in combination with MEPM 0.0625 μg/ml and compound of Example 26 20 μg/ml, PAM 1020), 0.0313 µg/mL; in experiment [2] (LVFX conc. in combination with MEPM 0.0625 μg/ml and compound of Example 26 40 μg/ml, PAM 1020), 0.0313 µg/mL; in experiment [2] (LVFX conc. in combination with MEPM 0.0625 μg/ml, compound of Example 26 0 μg/ml, PAM 1020), 0.25 µg/mL. Further, the LVFX conc. in experiment [2] (LVFX conc. in combination with MEPM 0.125 μg/ml and compound of Example 26 0.625 μg/ml, PAM 1020) amounted to 0.125 µg/mL; in experiment [2] (LVFX conc. in combination with MEPM 0.125 μg/ml and compound of Example 26 1.25 μg/ml, PAM 1020) it was 0.0625 µg/mL; in experiment [2] (LVFX conc. in combination with MEPM 0.125 μg/ml and compound of Example 26 2.5 μg/ml, PAM 1020), 0.0313 µg/mL; in experiment [2] (LVFX conc. in combination with MEPM 0.125 μg/ml and compound of Example 26 5 μg/ml, PAM 1020) it was 0.0156 µg/mL; in experiment [2] (LVFX conc. in combination with MEPM 0.125 μg/ml and compound of Example 26 10 μg/ml, PAM 1020), 0.0039 µg/mL; in experiment [2] (LVFX conc. in combination with MEPM 0.125 μg/ml, compound of Example 26 0 μg/ml, PAM 1020), 0.25 µg/mL. Further, the LVFX conc. in experiment [2] (LVFX conc. in combination with MEPM 0.25 μg/ml and compound of Example 26 0.625 μg/ml, PAM 1020) turned out to be 0.0078 µg/mL; in experiment [2] (LVFX conc. in combination with MEPM 0.25 μg/ml, compound of Example 26 0 μg/ml, PAM 1020), 2 µg/mL. Also, the minimum inhibitory concentration (MIC) in experiment [2] turned out to be 0.25 µg/mL.

Turning to `C[C@@H](O)[C@H]1C(=O)N2C(C(=O)O)=C(S[C@@H]3CN[C@H](C(=O)N(C)C)C3)[C@H](C)[C@H]12` [MEPM, Meropenem], the “effect of combined use of three types of drugs” value in experiment [2] (LVFX, MEPM and compound of Example 26 0.625-40 μg/ml, PAM 1020) is reported as “apparent effects of the addition of MEPM were observed”. Moreover, the MIC in experiment [2] amounted to 0.5 µg/mL. Moreover, the “effect of MEPM on the combined use of two types of drugs, LVFX and the compound of Example 26” value in experiment [2] (compound of Example 26 0.625-40 μg/ml, PAM 1020) was “effects of the addition of MEPM were clearly observed”.
